Laboratory results reported in patent publication US10669272B2, “Substituted naphthyridinone compounds useful as T cell activators” (BRISTOL-MYERS SQUIBB COMPANY, priority 2018, dated 2020).
Like-named read-outs stand apart in the source and are kept apart here.

What was measured:
[1] = system: Human venous whole blood; assay: Human whole blood IFN-γ assay; assay type: cell-based; conditions: human whole blood, anti-CD3 plus anti-CD28, 24 hours, 3 μM reference compound = 100% activation, read-out: INFg Whole Blood Normalized Agonist EC50;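 note: blood from healthy donors exposed to compound for 1 h before stimulation with anti-CD3 and anti-CD28 at 1 µg/mL each, IFN-γ quantified in supernatant by AlphaLISA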
[2] = molecular target: T1, human DGKα (Homo sapiens, UniProt P23743); assay: DGKα LIPGLO assay (extruded liposome substrate), in vitro DGK inhibition; assay type: biochemical; conditions: DGKα liposome (LIPGLO) assay; read-out: DGKa LIPGLO IC50
T1 construct: TVMV protease cleavage site (C); Hexa-His (C); made in house; host or cells: Sf9 insect cells (baculovirus, Bac-to-Bac)

[3] = molecular target: T2, human DGKζ (Homo sapiens, UniProt Q13574); assay: DGKζ LIPGLO assay (extruded liposome substrate), in vitro DGK inhibition; assay type: biochemical; conditions: DGKζ liposome (LIPGLO) assay; read-out: DGKz LIPGLO IC50
T2 construct: TVMV protease cleavage site (C); Hexa-His (C); made in house; host or cells: Sf9 insect cells (baculovirus, Bac-to-Bac)
T2 sequence (Q13574 with tags, fused parts or gaps isoform Q13574-4): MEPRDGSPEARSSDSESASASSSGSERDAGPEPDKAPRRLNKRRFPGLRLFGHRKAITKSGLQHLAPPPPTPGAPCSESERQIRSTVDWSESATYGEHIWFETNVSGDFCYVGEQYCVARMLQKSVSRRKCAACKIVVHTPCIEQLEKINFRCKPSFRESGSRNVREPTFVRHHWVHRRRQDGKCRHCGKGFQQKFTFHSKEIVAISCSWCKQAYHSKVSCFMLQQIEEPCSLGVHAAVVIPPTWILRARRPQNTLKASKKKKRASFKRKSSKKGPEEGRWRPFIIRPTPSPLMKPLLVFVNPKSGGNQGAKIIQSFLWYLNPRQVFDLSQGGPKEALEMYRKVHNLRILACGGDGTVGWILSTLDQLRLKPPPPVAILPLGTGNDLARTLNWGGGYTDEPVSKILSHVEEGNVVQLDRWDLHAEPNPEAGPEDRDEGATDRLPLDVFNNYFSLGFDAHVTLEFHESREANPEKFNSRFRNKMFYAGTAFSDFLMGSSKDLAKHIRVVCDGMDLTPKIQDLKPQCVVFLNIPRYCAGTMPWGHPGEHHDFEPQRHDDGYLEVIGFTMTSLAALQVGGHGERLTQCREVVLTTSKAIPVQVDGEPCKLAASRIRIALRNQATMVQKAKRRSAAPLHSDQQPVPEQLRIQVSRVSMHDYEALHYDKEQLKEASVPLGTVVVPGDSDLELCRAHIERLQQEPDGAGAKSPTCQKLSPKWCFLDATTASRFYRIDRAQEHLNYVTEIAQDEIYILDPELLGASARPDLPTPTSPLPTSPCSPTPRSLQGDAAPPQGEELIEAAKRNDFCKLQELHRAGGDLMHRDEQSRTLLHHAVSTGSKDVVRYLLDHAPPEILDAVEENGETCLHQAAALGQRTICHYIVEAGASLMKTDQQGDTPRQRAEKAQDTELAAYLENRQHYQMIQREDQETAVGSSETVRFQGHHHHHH

T1 sequence (P23743 with tags, fused parts or gaps): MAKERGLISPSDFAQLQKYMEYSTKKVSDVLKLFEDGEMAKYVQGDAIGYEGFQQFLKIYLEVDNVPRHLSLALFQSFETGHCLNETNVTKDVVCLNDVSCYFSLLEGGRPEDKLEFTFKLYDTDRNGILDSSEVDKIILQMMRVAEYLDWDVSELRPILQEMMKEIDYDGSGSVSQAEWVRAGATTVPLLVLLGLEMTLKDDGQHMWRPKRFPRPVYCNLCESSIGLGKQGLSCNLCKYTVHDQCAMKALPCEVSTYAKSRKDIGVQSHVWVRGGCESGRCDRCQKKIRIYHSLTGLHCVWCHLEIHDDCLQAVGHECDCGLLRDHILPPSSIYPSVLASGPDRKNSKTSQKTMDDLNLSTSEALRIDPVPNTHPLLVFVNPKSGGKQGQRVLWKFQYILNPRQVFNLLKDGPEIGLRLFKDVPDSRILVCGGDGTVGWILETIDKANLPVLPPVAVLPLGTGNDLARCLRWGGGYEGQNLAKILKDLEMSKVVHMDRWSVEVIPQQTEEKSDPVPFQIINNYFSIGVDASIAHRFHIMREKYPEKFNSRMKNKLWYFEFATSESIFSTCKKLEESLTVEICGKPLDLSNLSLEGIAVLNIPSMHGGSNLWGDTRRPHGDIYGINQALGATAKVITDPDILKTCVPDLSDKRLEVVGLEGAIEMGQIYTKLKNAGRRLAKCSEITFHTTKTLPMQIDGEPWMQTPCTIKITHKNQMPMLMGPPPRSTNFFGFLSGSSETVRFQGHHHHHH

Structure (SMILES) | IC50 [2] | IC50 [3] | EC50 ([1]; Homo sapiens, 24 h) | EC50 [1]
C[C@@H]1CN(c2cc(=O)n(C)c3ccc(C#N)nc23)[C@@H](C)CN1C(c1ccc(F)cc1)c1cnn(C2CC2)c1 (single isomer, unassigned) [Example 726] | 1900 nM | 59 nM | – | 800 nM
C[C@@H]1CN(c2cc(=O)n(C)c3ccc(C#N)nc23)[C@@H](C)CN1C(c1ccc(F)cc1)c1cnc(C2CC2)s1 (single isomer, unassigned) [Example 727] | 37000 nM | 1600 nM | 1300 nM | –
C[C@@H]1CN(c2cc(=O)n(C)c3ccc(C#N)nc23)[C@@H](C)CN1C(c1ccc(F)cc1)c1cc(C2CC2)on1 (single isomer, unassigned) [Example 729] | 1100 nM | 1800 nM | 2200 nM | –
C[C@@H]1CN(c2cc(=O)n(C)c3ccc(C#N)nc23)[C@@H](C)CN1C(c1ccc(F)cc1)c1cc(C(C)(C)C)on1 (single isomer, unassigned) [Example 731] | 8500 nM | 330 nM | – | 950 nM
Cc1cc(C(c2ccc(F)cc2)N2C[C@H](C)N(c3cc(=O)n(C)c4ccc(C#N)nc34)C[C@H]2C)no1 (single isomer, unassigned) [Example 733] | 4100 nM | 1500 nM | – | 3500 nM
C[C@@H]1CN(c2cc(=O)n(C)c3ccc(C#N)nc23)[C@@H](C)CN1C(c1ccc(F)cc1)c1nc(C2CCN(C)CC2)no1 (single isomer, unassigned) [Example 752] | 1000 nM | 4100 nM | – | 1700 nM
C[C@@H]1CN(c2cc(=O)n(C)c3ccc(C#N)nc23)[C@@H](C)CN1C(c1ccc(OC(F)(F)F)cc1)c1nc(C2CC2)no1 (single isomer, unassigned) [Example 758] | 860 nM | 75 nM | 300 nM | –
C[C@@H]1CN(c2cc(=O)n(C)c3ccc(C#N)nc23)[C@@H](C)CN1C(c1ccc(F)cc1)c1nnc(C2CC2)o1 (single isomer, unassigned) [Example 763] | 4500 nM | 760 nM | 1800 nM | –
C[C@@H]1CN(c2cc(=O)n(C)c3ccc(C#N)nc23)[C@@H](C)CN1C(c1ccc(F)cc1)c1nnc(C2CC2)[nH]1 (single isomer, unassigned) [Example 766] | 660 nM | 9400 nM | 3500 nM | –
C[C@@H]1CN(c2cc(=O)n(C)c3ccc(C#N)nc23)[C@@H](C)CN1C(c1ccc(F)cc1)c1nc(C2CC2)nn1C (single isomer, unassigned) [Example 768] | 14000 nM | 3200 nM | – | 1800 nM
C[C@@H]1CN(c2cc(=O)n(C)c3ccc(C#N)nc23)[C@@H](C)CN1C(c1ccc(F)cc1)c1nc(C2CC2)nn1C (single isomer, unassigned) [Example 769] | 16000 nM | 200 nM | – | 460 nM
C[C@@H]1CN(c2cc(=O)n(C)c3ccc(C#N)nc23)[C@@H](C)CN1C(c1ccc(F)cc1)c1nnnn1C(C)(C)C (single isomer, unassigned) [Example 770] | 21000 nM | 1700 nM | 8500 nM | –
C[C@@H]1CN(c2cc(=O)n(C)c3ccc(C#N)nc23)[C@@H](C)CN1C(c1ccc(F)cc1)c1nnnn1C(C)(C)C (single isomer, unassigned) [Example 771] | 6300 nM | 8500 nM | – | 10000 nM

Now those with a lower IC50 [2], led by results:

IC50 [2] | IC50 [3] | Structure (SMILES) | EC50 ([1]; Homo sapiens, 24 h) | EC50 [1]
610 nM | 1300 nM | C[C@@H]1CN(c2cc(=O)n(C)c3ccc(C#N)nc23)[C@@H](C)CN1C(c1ccc(F)cc1)c1nc(C2CCOCC2)no1 (single isomer, unassigned) [Example 740] | – | 120 nM
550 nM | 490 nM | C[C@@H]1CN(c2cc(=O)n(C)c3ccc(C#N)nc23)[C@@H](C)CN1C(c1ccc(F)cc1)c1cnn(C2CC2)c1 (single isomer, unassigned) [Example 725] | 1500 nM | –
440 nM | 6600 nM | C[C@@H]1CN(c2cc(=O)n(C)c3ccc(C#N)nc23)[C@@H](C)CN1C(c1ccc(F)cc1)c1nnc(C2CC2)[nH]1 (single isomer, unassigned) [Example 767] | – | 2300 nM
400 nM | 160 nM | CCc1noc(C(c2ccc(F)cc2)N2C[C@H](C)N(c3cc(=O)n(C)c4ccc(C#N)nc34)C[C@H]2C)n1 (single isomer, unassigned) [Example 753] | – | 640 nM
300 nM | 69 nM | CC(C)c1noc(C(c2ccc(F)cc2)N2C[C@H](C)N(c3cc(=O)n(C)c4ccc(C#N)nc34)C[C@H]2C)n1 (single isomer, unassigned) [Example 747] | – | 180 nM
190 nM | 1900 nM | C[C@@H]1CN(c2cc(=O)n(C)c3ccc(C#N)nc23)[C@@H](C)CN1C(c1ccc(F)cc1)c1nc(C2CN(C(=O)OC(C)(C)C)C2)no1 (single isomer, unassigned) [Example 756] | – | 6000 nM
180 nM | 290 nM | Cc1cc(C(c2ccc(F)cc2)N2C[C@H](C)N(c3cc(=O)n(C)c4ccc(C#N)nc34)C[C@H]2C)no1 (single isomer, unassigned) [Example 734] | – | 1400 nM
85 nM | 290 nM | C[C@@H]1CN(c2cc(=O)n(C)c3ccc(C#N)nc23)[C@@H](C)CN1C(c1ccc(OC(F)(F)F)cc1)c1nc(C2CC2)no1 (single isomer, unassigned) [Example 759] | – | 270 nM
63 nM | 44 nM | C[C@@H]1CN(c2cc(=O)n(C)c3ccc(C#N)nc23)[C@@H](C)CN1C(c1ccc(F)cc1)c1cnc(C2CC2)s1 (single isomer, unassigned) [Example 728] | – | 920 nM
58 nM | 230 nM | CCc1noc(C(c2ccc(F)cc2)N2C[C@H](C)N(c3cc(=O)n(C)c4ccc(C#N)nc34)C[C@H]2C)n1 (single isomer, unassigned) [Example 754] | – | 91 nM
54 nM | 220 nM | CC(C)c1noc(C(c2ccc(F)cc2)N2C[C@H](C)N(c3cc(=O)n(C)c4ccc(C#N)nc34)C[C@H]2C)n1 (single isomer, unassigned) [Example 748] | – | 410 nM
44 nM | 640 nM | C[C@@H]1CN(c2cc(=O)n(C)c3ccc(C#N)nc23)[C@@H](C)CN1C(c1ccc(F)cc1)c1cc(C2CC2)on1 (single isomer, unassigned) [Example 730] | 870 nM | –
44 nM | 150 nM | C[C@@H]1CN(c2cc(=O)n(C)c3ccc(C#N)nc23)[C@@H](C)CN1C(c1ccc(F)cc1)c1cc(C(C)(C)C)on1 (single isomer, unassigned) [Example 732] | – | 440 nM
23 nM | 160 nM | C[C@@H]1CN(c2cc(=O)n(C)c3ccc(C#N)nc23)[C@@H](C)CN1C(c1ccc(F)cc1)c1nc(C2CN(C(=O)OC(C)(C)C)C2)no1 (single isomer, unassigned) [Example 757] | – | 1000 nM
4.7 nM | 27 nM | CC(C)c1nnc(C(c2ccc(F)cc2)N2C[C@H](C)N(c3cc(=O)n(C)c4ccc(C#N)nc34)C[C@H]2C)s1 (single isomer, unassigned) [Example 772] | – | 1400 nM
